Measurements: US7812036B2, “Androgens” (N.V. Organon, priority 2004, dated 2010)

Target: T1, human androgen receptor (Homo sapiens, UniProt P10275)
T1 construct: expressed in transfected cells; host or cells: Chinese hamster ovary (CHO) cells, line CHO-AR-pMMTV-LUC 1G12-A5-CA
T1 sequence (P10275 1-920): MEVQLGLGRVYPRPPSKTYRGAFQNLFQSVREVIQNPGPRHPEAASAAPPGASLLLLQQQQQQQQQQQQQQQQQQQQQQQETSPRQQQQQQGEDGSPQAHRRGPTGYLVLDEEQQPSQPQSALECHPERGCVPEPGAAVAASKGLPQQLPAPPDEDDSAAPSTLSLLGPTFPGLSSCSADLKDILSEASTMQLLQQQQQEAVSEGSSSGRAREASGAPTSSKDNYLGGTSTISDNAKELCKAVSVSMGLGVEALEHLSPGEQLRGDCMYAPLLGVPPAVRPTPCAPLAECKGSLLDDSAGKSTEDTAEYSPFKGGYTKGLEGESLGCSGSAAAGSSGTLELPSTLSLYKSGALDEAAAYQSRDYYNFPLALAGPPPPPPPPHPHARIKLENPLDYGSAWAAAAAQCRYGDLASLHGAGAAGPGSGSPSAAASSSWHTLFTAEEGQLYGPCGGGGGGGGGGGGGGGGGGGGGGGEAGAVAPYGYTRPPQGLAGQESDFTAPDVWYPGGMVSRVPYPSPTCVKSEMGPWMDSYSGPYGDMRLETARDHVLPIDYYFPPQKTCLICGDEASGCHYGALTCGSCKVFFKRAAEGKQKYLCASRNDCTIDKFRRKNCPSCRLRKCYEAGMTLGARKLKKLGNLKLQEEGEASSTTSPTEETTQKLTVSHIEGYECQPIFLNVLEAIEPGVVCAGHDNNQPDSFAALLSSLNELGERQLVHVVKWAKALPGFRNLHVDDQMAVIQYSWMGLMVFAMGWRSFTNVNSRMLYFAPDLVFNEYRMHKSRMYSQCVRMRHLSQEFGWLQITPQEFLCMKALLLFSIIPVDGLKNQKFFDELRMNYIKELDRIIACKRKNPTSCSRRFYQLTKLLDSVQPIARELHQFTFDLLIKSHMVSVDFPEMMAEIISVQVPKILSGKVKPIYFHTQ
Test: Androgenic activity (potency) in vitro bioassay, CHO-AR-pMMTV-LUC 1G12-A5-CA cells, luciferase reporter
Type: cell-based
Conditions: CHO cells stably transfected with human androgen receptor and MMTV-luciferase reporter; in the presence of 0.1 μmol/l onapristone; potencies expressed as percentage of DHT activity (maximal efficacy with 100 nmol/l DHT set as 100%)
Method: The androgenic activity (potency) of the compounds of the invention was determined in an in vitro bioassay of Chinese hamster ovary (CHO) cells stably transfected with the human androgen receptor expression plasmid and a reporter plasmid in which the MMTV promoter is linked to the luciferase reporter gene. The cell line CHO-AR-pMMTV-LUC 1G12-A5-CA is described in Schoonen et al. (J. Steroid Biochem. Molec. Biol. 2002; 74: 213-222). The androgen receptor activity of compounds was determined in the presence of 0.1 μmol/l onapristone. The maximal efficacy in the presence of 100 nmol/1 DHT was set as 100%. The potencies are expressed as percentage of DHT activity.

First: CNc1ccc2c(Sc3ccccc3[N+](=O)[O-])cn(Cc3cccc(C(F)(F)F)c3)c2c1 [Example 5q, Methyl-[3-(2-nitro-phenylsulfanyl)-1-(3-trifluoromethyl-benzyl)-1H-indol-6-yl]-amine]
Second: CNc1ccc2c(Sc3ccccc3C#N)cn(Cc3cc(F)cc(F)c3)c2c1 [Example 6]
The “Potency (%)” value of the first is lower: 1.0% for the first, 10.5% for the second.

Going from `CN(C)c1ccc2c(Sc3ccccc3[N+](=O)[O-])cn(Cc3cc(F)cc(F)c3)c2c1` [Example 18] to `CNc1ccc2c(Sc3ccccc3[N+](=O)[O-])cn(Cc3ccccn3)c2c1` [Example 2, Methyl-[3-(2-nitro-phenylsulfanyl)-1-pyridin-2-ylmethyl-1H-indol-6-yl]-amine], the “Potency (%)” value rises from 2.7% to 9.9%.

First: N#CCNc1ccc2c(Sc3ccccc3[N+](=O)[O-])cn(Cc3ccccn3)c2c1 [Example 21d, [3-(2-Nitro-phenylsulfanyl)-1-pyridin-2-ylmethyl-1H-indol-6-ylamino]-acetonitrile]
Second: CNc1ccc2c([S+]([O-])c3ccccc3[N+](=O)[O-])cn(Cc3ccc(F)cc3)c2c1 (centres unmarked) [Example 5d]
The “Potency (%)” value of the first is higher: 6.7% for the first, 4.3% for the second.

First: N#CCNc1ccc2c(Sc3ccccc3C#N)cn(Cc3cc(F)cc(F)c3)c2c1 [Example 21g, 2-[6-(Cyanomethyl-amino)-1-(3,5-difluoro-benzyl)-1H-indol-3-ylsulfanyl]-benzonitrile]
Second: O=[N+]([O-])c1ccccc1Sc1cn(Cc2cc(F)cc(F)c2)c2cc(NCC3CC3)ccc12 [Example 22d]
The “Potency (%)” value of the first is higher: 9.2% for the first, 0.9% for the second.

Going from `CNc1ccc2c(Sc3ccccc3[N+](=O)[O-])cn(Cc3cc(F)cc(F)c3)c2c1` [Example 1] to `CC(=O)CNc1ccc2c(Sc3ccccc3[N+](=O)[O-])cn(Cc3cc(F)cc(F)c3)c2c1` [Example 21a, 1-[1-(3,5-Difluoro-benzyl)-3-(2-nitro-phenylsulfanyl)-1H-indol-6-ylamino]-propan-2-one], the “Potency (%)” value falls from 15.0% to 7.2%.

Going from `O=[N+]([O-])c1ccccc1Sc1cn(Cc2cc(F)cc(F)c2)c2cc(NCC(F)(F)F)ccc12` [Example 21k, [1 (3,5-Difluoro-benzyl)-3-(2-nitro-phenylsulfanyl)-1H-indol-6-yl]-(2,2,2-trifluoroethyl)-amine] to `CNc1ccc2c(Sc3ccccc3[N+](=O)[O-])cn(Cc3cc(C#N)cc(C#N)c3)c2c1` [Example 5s, 5-[6-Methylamino-3-(2-nitro-phenylsulfanyl)-indol-1-ylmethyl]-isophthalonitrile], the “Potency (%)” value rises from 0.6% to 5.9%.

First: CNc1ccc2c(Sc3ccccc3CO)cn(Cc3cc(F)cc(F)c3)c2c1 [Example 10]
Second: C=CCNc1ccc2c(Sc3ccccc3[N+](=O)[O-])cn(Cc3cc(F)cc(F)c3)c2c1 [Example 19b]
The “Potency (%)” value of the first is higher: 4.3% for the first, 2.4% for the second.

First: CNc1ccc2c(S(=O)(=O)c3ccccc3[N+](=O)[O-])cn(Cc3ccccn3)c2c1 [Example 14, Methyl-[3-(2-nitro-phenylsulfonyl)-1-pyridin-2-ylmethyl-1H-indol-6-yl]-amine]
Second: C#CCNc1ccc2c(Sc3ccccc3[N+](=O)[O-])cn(Cc3cc(F)cc(F)c3)c2c1 [Example 22b, [1-(3,5-Difluoro-benzyl)-3-(2-nitro-phenylsulfanyl)-1H-indol-6-yl]-prop-2-ynyl-amine]
The “Potency (%)” value of the first is lower: 1.9% for the first, 27.1% for the second.

Going from `COCCNc1ccc2c(Sc3ccccc3C#N)cn(Cc3cc(F)cc(F)c3)c2c1` [Example 21i] to `CNc1ccc2c(Sc3ccccc3[N+](=O)[O-])cn(Cc3ccno3)c2c1` [Example 5n, [1-Isoxazol-5-ylmethyl-3-(2-nitro-phenylsulfanyl)-1H-indol-6-yl]-methyl-amine], the “Potency (%)” value rises from 6.0% to 19.4%.

First: CNc1ccc2c(Sc3ccccc3[N+](=O)[O-])cn(Cc3cscn3)c2c1 [Example 5l, Methyl-[3-(2-nitro-phenylsulfanyl)-1-thiazol-4-ylmethyl-1H-indol-6-yl]-amine]
Second: CCCNc1ccc2c(Sc3ccccc3[N+](=O)[O-])cn(Cc3cc(F)cc(F)c3)c2c1 [Example 22a, [1-(3,5-Difluoro-benzyl)-3-(2-nitro-phenylsulfanyl)-1H-indol-6-yl]-propyl-amine]
The “Potency (%)” value of the first is higher: 4.8% for the first, 2.4% for the second.

First: CNc1ccc2c(Sc3ccccc3[N+](=O)[O-])cn(Cc3cccnc3)c2c1 [Example 3, Methyl-[3-(2-nitro-phenylsulfanyl)-1-pyridine-3-ylmethyl-1H-indol-6-yl]-amine]
Second: O=[N+]([O-])c1ccccc1Sc1cn(Cc2cc(F)cc(F)c2)c2cc(NCCO)ccc12 [Example 21b, 2-[1-(3,5-Difluoro-benzyl)-3-(2-nitro-phenylsulfanyl)-1H-indol-6-ylamino]-ethanol]
The “Potency (%)” value of the first is higher: 13.4% for the first, 7.9% for the second.

Going from `CNc1ccc2c(Sc3ccccc3[N+](=O)[O-])cn(Cc3cccc(Cl)c3)c2c1` [Example 5p, [1-(3-Chloro-benzyl)-3-(2-nitro-phenylsulfanyl)-1H-indol-6-yl]-methyl-amine] to `COCCNc1ccc2c(Sc3ccccc3[N+](=O)[O-])cn(Cc3ccccn3)c2c1` [Example 21e, (2-Methoxy-ethyl)-[3-(2-nitro-phenylsulfanyl)-1-pyridin-2-ylmethyl-1H-indol-6-yl]-amine], the “Potency (%)” value rises from 1.3% to 8.3%.

Compared with `CNc1ccc2c(Sc3ccccc3C(=O)OC)cn(Cc3cc(F)cc(F)c3)c2c1` [Example 9], `CNc1ccc2c(Sc3ccccc3C(C)=O)cn(Cc3cc(F)cc(F)c3)c2c1` [Example 8, 1-{2-[1-(3,5-Difluoro-benzyl)-6-methylamino-1H-indol-3-ylsulfanyl]-phenyl}-ethanone] is lower in “Potency (%)” value: 0.7% for the first, 0.2% for the second.

Compared with `CNc1ccc2c(Sc3ccccn3)cn(Cc3cc(F)cc(F)c3)c2c1` [Example 11, [1-(3,5-Difluoro-benzyl)-3-(pyridin-2-ylsulfanyl)-1H-indol-6-yl]-methyl-amine], `CNc1ccc2c(Sc3ccccc3[N+](=O)[O-])cn(Cc3cccc(C#N)c3)c2c1` [Example 5r, 3-[6-Methylamino-3-(2-nitro-phenylsulfanyl)-1-indol-1-ylmethyl]-benzonitrile] is higher in “Potency (%)” value: 6.6% for the first, 11.4% for the second.

Going from “Methyl-[1-(3-meth 1-benzyl-3-(2-nitro-phenylsulfanyl)-1H-indol-6-yl]-amine [Example 5o]” to `CNc1ccc2c(Sc3ccccc3[N+](=O)[O-])cn(Cc3ccoc3)c2c1` [Example 5i, [1-Furan-3-ylmethyl-3-(2-nitro-phenylsulfanyl)-1H-indol-6-yl]-methyl-amine], the “Potency (%)” value rises from 1.6% to 17.9%.

Going from `CNc1ccc2c(Sc3ccccc3[N+](=O)[O-])cn(Cc3ccncc3)c2c1` [Example 5e, Methyl-[3-(2-nitro-phenylsulfanyl)-1-pyridin-4-ylmethyl-1H-indol-6-yl]-amine] to `CNc1ccc2c(Sc3ccccc3[N+](=O)[O-])cn(Cc3ncco3)c2c1` [Example 5m, Methyl-[3-(2-nitro-phenylsulfanyl)-1-oxazol-2-ylmethyl-1H-indol-6-yl]-amine], the “Potency (%)” value falls from 35.1% to 3.2%.

First: CCNc1ccc2c(Sc3ccccc3[N+](=O)[O-])cn(Cc3cc(F)cc(F)c3)c2c1 [Example 19a, [1-(3,5-Difluoro-benzyl)-3-(2-nitro-phenylsulfanyl)-1H-indol-6-yl]-ethyl-amine]
Second: N#CCNc1ccc2c(Sc3ccccc3[N+](=O)[O-])cn(Cc3cc(F)cc(F)c3)c2c1 [Example 20, [1-(3,5-Difluoro-benzyl)-3-(2-nitro-phenylsulfanyl)-1H-indol-6-ylamino]-acetonitrile]
The “Potency (%)” value of the first is lower: 2.7% for the first, 40.2% for the second.

Going from `COC(=O)CNc1ccc2c(Sc3ccccc3[N+](=O)[O-])cn(Cc3cc(F)cc(F)c3)c2c1` [Example 22e] to `CNc1ccc2c(Sc3ccccc3[N+](=O)[O-])cn(Cc3ncccn3)c2c1` [Example 5f, Methyl-[3-(2-nitro-phenylsulfanyl)-1-pyrimidin-2-ylmethyl-1H-indol-6-yl]-amine], the “Potency (%)” value falls from 4.0% to 1.8%.

First: CCNc1ccc2c(Sc3ccccc3[N+](=O)[O-])cn(Cc3ccccn3)c2c1 [Example 19d, Ethyl-[3-(2-nitro-phenylsulfanyl)-1-pyridin-2-ylmethyl-1H-indol-6-yl]-amine]
Second: C=C(C)CNc1ccc2c(Sc3ccccc3[N+](=O)[O-])cn(Cc3cc(F)cc(F)c3)c2c1 [Example 22c]
The “Potency (%)” value of the first is higher: 6.7% for the first, 1.2% for the second.
